According to patent publication US8962322B2, “Enhancers of induced pluripotent stem cell reprogramming” (City of Hope, priority 2012, dated 2015):
Read-outs that look alike come from different tables or passages of the source.

Legend:
human Oct4 promoter = assay: Oct4-luc luciferase reporter assay (stably transfected CV1 cells); format: cell-based; conditions: for fold induction at 1 µM / Oct4-luc Activity / Oct4-luc fold Induction: compound at 1 μM, Oct4-luc cells, triplicates; for induction of Oct4-luc, comparison with known reprogramming enhancers (in words): OAC1 1 μM, BIO 2 μM, BIX 2 μM, AzaC 2 μM, Vc 25 μg/ml, Am580 10 nM, tranylcypromine 5 μM, VPA 0.5 mM, two days
Description: A high-throughput screening scheme was designed to identify Oct4 promoter-activating compounds using a luciferase reporter under the control of the human Oct4 promoter (Oct4-luc). […] A stable cell line (Oct4-luc) that expresses luciferase reporter driven by the exogenous Oct4 promoter was established using hygromycin-resistance as a selection marker. These Oct4-luc cells were used for high-throughput screening of a chemical library of 80,000 compounds. The luciferase reporter activity was measured 24 hr after compound treatment. Solvent treatment was included as a negative control.
(§1) Then the promoter sequences were cloned into pGL4.4-luc-Hyg vector (Promega) to get Oct4-luc or Nanog-luc construct and the fidelity of the Oct4 and Nanog promoter DNA sequences was confirmed by bi-directional sequencing. CV 1 cells were transfected with the Oct4-luc or Nanog-luc constructs and the stably-transfected cells were selected by hygromycine resistance.
Compound Screening: The Oct4-luc cells were seeded at 1.75×10^4 cells per well density into 96-well plates. Compounds were added to cells one day after cell seeding at the concentration of 10 μM for 24 hr in the High-Throughput Screening core facility at City of Hope. Compounds that induced luciferase activity 3-fold or more were selected for further validation in both Oct4-luc and Nanog-luc cells.
(§2) Luciferase Reporter Assays: The Oct4-luc or Nanog-luc cells were treated with compound OAC 1 or its structural analogs at 1 μM concentration or at indicated concentrations in triplicates. Other compounds used include 2 μM BIO, 2 μM BIX, 2 μM
(§3) AzaC, 25 μg/ml Vc, 10 nM Am580, 5 μM tranylcypromine, and 0.5 mM VPA. Luciferase reporter assays were performed as described (51) 24 hr after compound treatment or at indicated time points. For Topflash reporter assays, 0.2 μg β-catenin-responsive Topflash reporter gene plasmid was introduced into CV1 cells using trasfection (Bio-Rad). Compounds were added 6 hr after transfection. Luciferase activity was measured 48 hr after compound treatment using the Glo Luciferase Assay System (Promega).

human Nanog promoter = assay: Nanog-luc luciferase reporter assay (stably transfected CV1 cells); format: cell-based; conditions: for fold induction at 1 µM: Chlorocebus aethiops, CV-1; for fold induction at 1 µM / Nanog-luc fold Induction: compound at 1 μM, Nanog-luc cells, triplicates; for induction of Nanog-luc, comparison with known reprogramming enhancers (in words): OAC1 1 μM, BIO 2 μM, BIX 2 μM, AzaC 2 μM, Vc 25 μg/ml, Am580 10 nM, tranylcypromine 5 μM, VPA 0.5 mM, two days
Procedure: Oct4, Sox2, and Nanog form a positive regulatory loop to regulate the expression of each other, and Nanog is considered a downstream target gene of Oct4 and Sox2 (37). Therefore, activation of Nanog promoter was used as a validation assay for the identified compounds. Specifically, the Oct4 promoter-activating compounds were tested to ascertain whether they activate a human
Nanog promoter-driven luciferase reporter gene using in triplicate luciferase reporter assays.
as §1, §2, §3

[1] = Homo sapiens, CV-1, 24 h, read-out: Oct4-luc Activity
[2] = read-out: Oct4-luc fold Induction

Molecule `COc1cc(OC)c(C(=O)Nc2ccc3[nH]ncc3c2)cc1OC` [Compound C33] has a fold induction at 1 µM (human Oct4 promoter; [1]) of less than 1.8, a fold induction at 1 µM (human Oct4 promoter; [2]) of 1 and a fold induction at 1 µM (human Nanog promoter) of 1.1.

For `O=C(Nc1ccc2[nH]ccc2c1)c1ccc2nonc2c1` [OAC5], the “Oct4-luc Activity” value (human Oct4 promoter) was “++ (Compounds that induce Oct4-luc 1.8-fold or more were classified as “++”)”, the “Oct4-luc fold Induction” value (human Oct4 promoter) was 2.9 fold and the “Nanog-luc fold Induction” value (human Nanog promoter) was 2.4 fold.

Work on `Nc1ccc(C(=O)Nc2ccc3[nH]ncc3c2)cc1` [Compound C39] yielded a fold induction at 1 µM (human Oct4 promoter; [1]) of less than 1.8, a fold induction at 1 µM (human Oct4 promoter; [2]) of 1.62 and a fold induction at 1 µM (human Nanog promoter) of 1.55.

In the case of `COc1ccccc1C(=O)Nc1ccc2[nH]ncc2c1` [Compound C25], the “Oct4-luc Activity” value (human Oct4 promoter) is reported as “+ (molecules that induce Oct4-luc less than 1.8-fold were indicated as “+”)”, the “Oct4-luc fold Induction” value (human Oct4 promoter) is reported as 1.5 fold and the “Nanog-luc fold Induction” value (human Nanog promoter) is reported as 1.6 fold.

With `CCOc1ccc(C(=O)Nc2ccc3[nH]ncc3c2)cc1` [OAC9] the “Oct4-luc Activity” value (human Oct4 promoter) was “++ (Compounds that induce Oct4-luc 1.8-fold or more were classified as “++”)”, the “Oct4-luc fold Induction” value (human Oct4 promoter) was 4.4 fold and the “Nanog-luc fold Induction” value (human Nanog promoter) was 4.4 fold.

`N[C@@H]1C[C@H]1c1ccccc1` (racemic) [tranylcypromine, reference compound] was tested, and the “induction of Oct4-luc, comparison with known reprogramming enhancers (in words)” value (human Oct4 promoter) was “no significant effect” and the “induction of Nanog-luc, comparison with known reprogramming enhancers (in words)” value (human Nanog promoter) was “no significant effect”.

`CCc1ccc(C(=O)Nc2ccc3[nH]ncc3c2)cc1` [OAC10] was tested, and the “Oct4-luc Activity” value (human Oct4 promoter) was “++ (Compounds that induce Oct4-luc 1.8-fold or more were classified as “++”)”, the “Oct4-luc fold Induction” value (human Oct4 promoter) was 4.5 fold and the “Nanog-luc fold Induction” value (human Nanog promoter) was 4.4 fold.

In the case of `COc1ccc(C(=O)Nc2ccc3[nH]ncc3c2)cc1` [OAC6], the “Oct4-luc Activity” value (human Oct4 promoter) is reported as “++ (Compounds that induce Oct4-luc 1.8-fold or more were classified as “++”)”, the “Oct4-luc fold Induction” value (human Oct4 promoter) is reported as 3.2 fold and the “Nanog-luc fold Induction” value (human Nanog promoter) is reported as 2.9 fold.

For `Cc1ccc(C(=O)Nc2ccc3[nH]cc(C#N)c3c2)cc1` [Compound C17], the “Oct4-luc Activity” value (human Oct4 promoter) was “+ (molecules that induce Oct4-luc less than 1.8-fold were indicated as “+”)”, the “Oct4-luc fold Induction” value (human Oct4 promoter) was 1.1 fold and the “Nanog-luc fold Induction” value (human Nanog promoter) was 1.1 fold.

In the case of `COc1ccc(C(=O)Nc2ccc3[nH]c(C)cc3c2)cc1` [OAC16], the “Oct4-luc Activity” value (human Oct4 promoter) is reported as “++ (Compounds that induce Oct4-luc 1.8-fold or more were classified as “++”)”, the “Oct4-luc fold Induction” value (human Oct4 promoter) is reported as 3 fold and the “Nanog-luc fold Induction” value (human Nanog promoter) is reported as 3.43 fold.

`COc1cc2nc(N3CCCN(C)CC3)nc(NC3CCN(Cc4ccccc4)CC3)c2cc1OC` [BIX, reference compound] was tested, and the “induction of Oct4-luc, comparison with known reprogramming enhancers (in words)” value (human Oct4 promoter) was “no significant effect” and the “induction of Nanog-luc, comparison with known reprogramming enhancers (in words)” value (human Nanog promoter) was “no significant effect”.

For `O=C(Nc1ccc2[nH]ncc2c1)c1cccc(C(F)(F)F)c1` [Compound C21], the “Oct4-luc Activity” value (human Oct4 promoter) was “+ (molecules that induce Oct4-luc less than 1.8-fold were indicated as “+”)”, the “Oct4-luc fold Induction” value (human Oct4 promoter) was 1.2 fold and the “Nanog-luc fold Induction” value (human Nanog promoter) was 1.2 fold.

In the case of `O=C(Nc1ccc2[nH]ncc2c1)c1cccc(Cl)c1` [Compound C19], the “Oct4-luc Activity” value (human Oct4 promoter) is reported as “+ (molecules that induce Oct4-luc less than 1.8-fold were indicated as “+”)”, the “Oct4-luc fold Induction” value (human Oct4 promoter) is reported as 1.6 fold and the “Nanog-luc fold Induction” value (human Nanog promoter) is reported as 1.5 fold.

With `Cc1nc2cc(NC(=O)c3ccc([N+](=O)[O-])cc3)ccc2[nH]1` [Compound C32] the “Oct4-luc Activity” value (human Oct4 promoter) was “+ (molecules that induce Oct4-luc less than 1.8-fold were indicated as “+”)”, the “Oct4-luc fold Induction” value (human Oct4 promoter) was 1.3 fold and the “Nanog-luc fold Induction” value (human Nanog promoter) was 1.2 fold.

`O=C(Nc1ccc2[nH]ncc2c1)c1ccccc1` [OAC8] was tested, and the “Oct4-luc Activity” value (human Oct4 promoter) was “++ (Compounds that induce Oct4-luc 1.8-fold or more were classified as “++”)”, the “Oct4-luc fold Induction” value (human Oct4 promoter) was 1.9 fold and the “Nanog-luc fold Induction” value (human Nanog promoter) was 1.8 fold.

With `O=C(Nc1ccc2[nH]nnc2c1)c1cccc(Cl)c1` [Compound C31] the “Oct4-luc Activity” value (human Oct4 promoter) was “+ (molecules that induce Oct4-luc less than 1.8-fold were indicated as “+”)”, the “Oct4-luc fold Induction” value (human Oct4 promoter) was 1.0 fold and the “Nanog-luc fold Induction” value (human Nanog promoter) was 1.1 fold.

In the case of `O=C(Nc1ccc2[nH]ncc2c1)c1ccccc1Cl` [Compound C23], the “Oct4-luc Activity” value (human Oct4 promoter) is reported as “+ (molecules that induce Oct4-luc less than 1.8-fold were indicated as “+”)”, the “Oct4-luc fold Induction” value (human Oct4 promoter) is reported as 1.7 fold and the “Nanog-luc fold Induction” value (human Nanog promoter) is reported as 1.6 fold.
